Earlier results on 1 substance are cited in EP0209897A2, “Peptide enzyme inhibitors” (Merck & Co., Inc., priority 1985, dated 1987).

The data set has as its system hog renin. To be noted: after the injection of hog renin into nephrectomized rats; Gross et al., Science 175:656, 1971.

Pepstatin: the “blood pressure in vivo” value is on record as “reduce blood pressure”.
